Laboratory results as given in PMC7046553, “Backbone Cyclization and Dimerization of LL-37-Derived Peptides Enhance Antimicrobial Activity and Proteolytic Stability” (Frontiers in Microbiology, 2020).
pIC50: −log10 of the molar value. Values after ≈ are worked out from the molar mass of the structure shown. Read-outs that look alike come from different tables or passages of the source. Where a SMILES comes first, the peptide text is derived from it.

Assays:
[1] = tested on: human lymphoma cell line U-937 GTB; conditions: read-out: IC50 (cytotoxicity); 72 hours incubation; tested in parallel with the dimers; ref Gunasekera et al., 2018; cited from earlier work
[2] = in vitro; conditions: human, 25% human serum
Procedure: Proteolytic stability of the peptides were determined in diluted human serum (1:4 v/v, serum:PBS) at 37°C followed by LC-MS analysis. To examine the intact peptide after serum incubation, aliquots of each incubation mixture were taken at each time point for LC-MS analysis (Figure 5).
Peptide stability was assayed in diluted human serum. 25% human serum was centrifuged at 13,000 rpm for 10 min to remove lipids and the supernatant was collected and incubated at 37°C for 15 min. […] Eighty μl of 6 M urea was added and incubated at 4°C for a further 10 min. 80 μl of 20% TCA was added and incubated at 4°C for a further 10 min. The samples were centrifuged at 13000 g for 10 min and the supernatant was analyzed by LC-MS.

[3] = format: cell-based, human
From the text: FIGURE 4 Cytotoxicity. Cytotoxicity on a human lymphoma cell line (U-937 GTB). The cell viability derives from the hydrolysis of the probe fluorescein diacetate by esterases in cells with intact plasma membranes. Results are means from triplicates with standard deviation, and the IC50 level is highlighted by a double line. The dose–response curve for LL-37 has been constrained within 100% to compensate for elevated fluorescein hydrolysis by intermediate LL-37 concentrations. The data for KR-12, Q5K,D9K and LL-37 are from our previous work ([Gunasekera et al., 2018]), but tested in parallel with the dimers and included here for consistency.
The cytotoxicity of the peptides was tested on the human lymphoma cell line U-937 GTB in a fluorometric microculture cytotoxicity assay (FMCA), described in detail previously ([Sundström and Nilsson, 1976]; [Lindhagen et al., 2008]). […] After incubation for 40 minutes the fluorescence was measured at 485 nm excitation and 538 nm emission using a Fluoroscan II (Labsystems Diagnostics Oy, Helsinki, FinlandI). The IC50-values were calculated using sigmoidal dose response curves with nonlinear non-linear regression and 0/100 constraints in GraphPad Prism (GraphPad Software, San Diego, CA, United States). […]

[4] = tested on: Human type A RBCs; assay: Hemolysis assay; format: cell-based
Procedure: Peptides were dissolved in water and serially diluted in PBS to give 20 μl test solutions in a 96-well U-bottomed microtiter plate (Nunc). Human type A RBCs (red blood cells) were washed with PBS and centrifuged at 1500 g for 60 s in a microcentrifuge several times until a clear supernatant was obtained. A 0.25% suspension of washed RBCs in PBS (100 μl) was added to the peptide solutions. The plate was incubated at 37°C for 1 h and centrifuged at 150 g for 5 min. Aliquots of 100 μl were transferred to a 96-well flat-bottomed microtiter plate (Falcon) and the absorbance was measured at 405 nm with an automatic Multiskan Ascent plate reader (Labsystems). The amount of hemolysis was calculated as the percentage of maximum lysis (1% Triton X-100 control) after adjusting for minimum lysis (PBS control). Synthetic melittin (Sigma) was used for comparison. The hemolytic dose necessary to lyse 50% of the RBCs (HD50) was calculated using the regression constant from the linear portion of the hemolytic titration curve (GraphPad Prism software).

[5] = tested on: Escherichia coli ATCC 25922; conditions: ATCC 25922, 5 h
Procedure: (§1) The three bacterial strains: Escherichia coli ATCC 25922, Pseudomonas aeruginosa ATCC 27853 Staphylococcus aureus ATCC 29213 as well as the fungal strain Candida albicans ATCC 90028 derived from clinical wound infections were obtained from the Department of Clinical Bacteriology at Lund University Hospital.
(§2) Antimicrobial activities of the peptides were evaluated using the two-step microdilution assay ([Strömstedt et al., 2017]), which is designed for testing AMPs without activity-inhibiting components. Briefly, the microbial suspension was washed twice with 10 mM Tris buffer (set to pH 7.4 at 37°C). 96-well plates (U-shaped, untreated polystyrene) were prepared with peptide 2-fold serial dilutions in Tris buffer. The culture density was quantified by OD600, diluted in Tris buffer and 50,000 cells aliquoted to each well in the 96-well plate to a final 100 μl volume. After 5 h of aerobic incubation at 37°C, 5 μl of 20% TSB medium was added to each well (resulting in 1% TSB) and the plates were re-incubated. Growth-inhibition was monitored when controls produced pellet sizes of 2 mm in diameter (close to growth saturation), which equates to 5, 8, 10, and 12 h for E. coli, S. aureus, P. aeruginosa, and C. albicans, respectively. […] The MIC-values in Table 1, are medians from triplicate experiments, while the data presented in the Figure 2 are the same values relative to that of KR-12.

[6] = tested on: Candida albicans ATCC 90028; conditions: ATCC 90028, 5 h
Procedure: as §1, §2

[7] = tested on: Staphylococcus aureus ATCC 29213; conditions: ATCC 29213, 5 h
Procedure: as §1, §2

[8] = tested on: Pseudomonas aeruginosa ATCC 27853; conditions: ATCC 27853, 5 h
Procedure: as §1, §2

CC[C@H](C)[C@H](NC(=O)[C@H](CCCCN)NC(=O)[C@H](CCC(=O)O)NC(=O)[C@H](CCCCN)NC(=O)[C@H](CO)NC(=O)[C@H](CCCCN)NC(=O)[C@H](CCCNC(=N)N)NC(=O)[C@H](Cc1ccccc1)NC(=O)[C@H](Cc1ccccc1)NC(=O)[C@H](CC(=O)O)NC(=O)CNC(=O)[C@H](CC(C)C)NC(=O)[C@@H](N)CC(C)C)C(=O)NCC(=O)N[C@@H](CCCCN)C(=O)N[C@@H](CCC(=O)O)C(=O)N[C@@H](Cc1ccccc1)C(=O)N[C@@H](CCCCN)C(=O)N[C@@H](CCCNC(=N)N)C(=O)N[C@H](C(=O)N[C@H](C(=O)N[C@@H](CCC(N)=O)C(=O)N[C@@H](CCCNC(=N)N)C(=O)N[C@H](C(=O)N[C@@H](CCCCN)C(=O)N[C@@H](CC(=O)O)C(=O)N[C@@H](Cc1ccccc1)C(=O)N[C@@H](CC(C)C)C(=O)N[C@@H](CCCNC(=N)N)C(=O)N[C@@H](CC(N)=O)C(=O)N[C@@H](CC(C)C)C(=O)N[C@H](C(=O)N1CCC[C@H]1C(=O)N[C@@H](CCCNC(=N)N)C(=O)N[C@H](C(=O)N[C@@H](CCC(=O)O)C(=O)N[C@@H](CO)C(=O)O)[C@@H](C)O)C(C)C)[C@@H](C)CC)C(C)C)[C@@H](C)CC [LL-37]
pIC50 [1]: 5.00

CC[C@H](C)[C@@H]1NC(=O)[C@H](CCCNC(=N)N)NC(=O)[C@H](CCCCN)NC(=O)[C@H](C(C)C)NC(=O)[C@H]([C@@H](C)CC)NC(=O)[C@H](CCCNC(=N)N)NC(=O)[C@H](CCCCN)NC(=O)CNC(=O)CNC(=O)[C@H](C)NC(=O)CNC(=O)[C@H](CCCNC(=N)N)NC(=O)[C@H](CC(C)C)NC(=O)[C@H](Cc2ccccc2)NC(=O)[C@H](CCCCN)NC(=O)[C@H](CCCCN)NC(=O)[C@H]([C@@H](C)CC)NC(=O)[C@H](CCCNC(=N)N)NC(=O)[C@H](CCCCN)NC(=O)[C@H](C(C)C)NC(=O)[C@H]([C@@H](C)CC)NC(=O)[C@H](CCCNC(=N)N)NC(=O)[C@H](CCCCN)NC(=O)CNC(=O)CNC(=O)[C@H](C)NC(=O)CNC(=O)[C@H](CCCNC(=N)N)NC(=O)[C@H](CC(C)C)NC(=O)[C@H](Cc2ccccc2)NC(=O)[C@H](CCCCN)NC(=O)[C@H](CCCCN)NC1=O [cd4(Q5K,D9K)] (cyclo(AGGKRIVKRIKKFLRGAGGKRIVKRIKKFLRG))
remaining at 6 h [2]: ~50%
pIC50 [3]: 6.00
HC50 (hemolysis) ([4]; red cells of human, 1 h): 10 µM
MIC E. coli [5]: 0.625 µM (≈ 2.26 µg/mL)
MIC bact. [5]: 0.63 µM (≈ 2.28 µg/mL)
MIC C. albicans [6]: 1.25 µM (≈ 4.52 µg/mL)
MIC fung. [6]: 1.25 µM (≈ 4.52 µg/mL)
MIC S. aureus [7]: 0.625 µM (≈ 2.26 µg/mL)
MIC P. aeruginosa [8]: 0.625 µM (≈ 2.26 µg/mL)

CC[C@H](C)[C@@H]1NC(=O)[C@H](CCCNC(=N)N)NC(=O)[C@H](CCC(N)=O)NC(=O)[C@H](C(C)C)NC(=O)[C@H]([C@@H](C)CC)NC(=O)[C@H](CCCNC(=N)N)NC(=O)[C@H](CCCCN)NC(=O)CNC(=O)CNC(=O)[C@H](C)NC(=O)CNC(=O)[C@H](CCCNC(=N)N)NC(=O)[C@H](CC(C)C)NC(=O)[C@H](Cc2ccccc2)NC(=O)[C@H](CC(=O)O)NC(=O)[C@H](CCCCN)NC(=O)[C@H]([C@@H](C)CC)NC(=O)[C@H](CCCNC(=N)N)NC(=O)[C@H](CCC(N)=O)NC(=O)[C@H](C(C)C)NC(=O)[C@H]([C@@H](C)CC)NC(=O)[C@H](CCCNC(=N)N)NC(=O)[C@H](CCCCN)NC(=O)CNC(=O)CNC(=O)[C@H](C)NC(=O)CNC(=O)[C@H](CCCNC(=N)N)NC(=O)[C@H](CC(C)C)NC(=O)[C@H](Cc2ccccc2)NC(=O)[C@H](CC(=O)O)NC(=O)[C@H](CCCCN)NC1=O [cd4] (cyclo(AGGKRIVQRIKDFLRGAGGKRIVQRIKDFLRG))
remaining at 6 h [2]: ~50%
pIC50 [3]: 5.29
HC50 (hemolysis) [4]: > 40 µM
MIC E. coli [5]: 0.625 µM (≈ 2.25 µg/mL)
MIC bact. [5]: 0.63 µM (≈ 2.26 µg/mL)
MIC C. albicans [6]: 2.5 µM (≈ 8.98 µg/mL)
MIC fung. [6]: 2.5 µM (≈ 8.98 µg/mL)
MIC S. aureus [7]: 1.25 µM (≈ 4.49 µg/mL)
MIC P. aeruginosa [8]: 0.625 µM (≈ 2.25 µg/mL)
